Reference: ChEMBL document CHEMBL1201862, “PubChem BioAssay data set” (2004)
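Test compounds were applied to cells in 96-well plates for 48 hours at 5 doses. GI50 is the concentration that inhibits growth by half.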 Activity calls are given as the source filed them. No stated cut-off is given here; in the data, active = GI50 up to about 1.1 µM and inactive = higher.

Experiments:
Assay in all cases: inhibition of tumour cell growth, NCI panel, 48 h
[1] = test system: DLD-1
[2] = test system: DMS-114
[3] = test system: DMS-273
[4] = test system: HOP-18
[5] = test system: KM-20L2
[6] = test system: LXFL 529
[7] = test system: RXF 631
[8] = test system: SNB-78
[9] = test system: XF498

Measured: GI50

NC(=S)N/N=C(\C(=O)Nc1ccc(Cl)c(Cl)c1)C1=NN(c2ccccc2)C(c2cccc([N+](=O)[O-])c2)CC1=O (centres undefined)
inactive: [1] 19.4 µM | [2] 20.7 µM | [3] 11.7 µM | [4] 29.1 µM | [5] 20.7 µM | [6] 19.1 µM | [7] 12 µM | [8] 62.4 µM | [9] 34.3 µM
